Source: PMC7221111 (Drugs in R&D, 2020)
Several values for one entry are separate records, joined by “and”; a condition that tells them apart may be missing. Equal values may be shown once. Read-outs that look alike come from different tables or passages of the source.

Key:
[1] = Population pharmacokinetic model of vancomycin in preterm neonates; settings: 500 non-parametric bootstrap runs; typical individual 1.48 kg
[2] = cited from earlier work

Compound: CN[C@H](CC(C)C)C(=O)N[C@H]1C(=O)N[C@@H](CC(N)=O)C(=O)N[C@H]2C(=O)N[C@H]3C(=O)N[C@H](C(=O)N[C@H](C(=O)O)c4cc(O)cc(O)c4-c4cc3ccc4O)[C@H](O)c3ccc(c(Cl)c3)Oc3cc2cc(c3O[C@@H]2O[C@H](CO)[C@@H](O)[C@H](O)[C@H]2O[C@H]2C[C@](C)(N)[C@H](O)[C@H](C)O2)Oc2ccc(cc2Cl)[C@H]1O [vancomycin]
- CL, bootstrap median (95% CI) [1]: 0.1 (0.09–0.11) L/h
- Vd, bootstrap median (95% CI) [1]: 0.86 (0.804–0.93) L
- Clearance, range reported in a similar population of neonates [2]: 0.054 to 0.07 L/h
- Vd, range reported in a similar population of neonates [2]: 0.58 to 1.19 L
- Variation in Vd ([2]; neonatal populations): 32% and 29.4%
- Variation in clearance ([2]; neonates): 32%
- Variation in Vd ([2]; paediatric populations): 43% and 77%
